Experimental data taken from ChEMBL document CHEMBL3045011, “Synthesis and Herbicidal Activities of 2-(5-Isoxazolyloxy)-acetamide Derivatives” (J Pestic Sci, 1998).
Activity calls are given as the source filed them. The calls are words filed in the database; no cut-off is given here.

Assays:
Digitaria ciliaris [1] = assay: Herbicidal activity against Digitaria ciliaris assessed as seedling death under green house at 1 kg/ha at 25 degC measured after 4 weeks; type: functional, organism-based
Persicaria lapathifolia [2] = assay: Herbicidal activity against Persicaria lapathifolia assessed as seedling death under green house at 0.5 kg/ha at 25 degC measured after 4 weeks; type: functional, organism-based
Amaranthus viridis [3] = assay: Herbicidal activity against Amaranthus viridis assessed as seedling death under green house at 0.5 kg/ha at 25 degC measured after 4 weeks; type: functional, organism-based
Echinochloa crus-galli [4] = assay: Herbicidal activity against Echinochloa crus-galli (barnyard grass) assessed as seedling death under green house at 1 kg/ha at 25 degC measured after 4 weeks; type: functional, organism-based
Persicaria lapathifolia [5] = assay: Herbicidal activity against Persicaria lapathifolia assessed as seedling death under green house at 1 kg/ha at 25 degC measured after 4 weeks; type: functional, organism-based
Echinochloa crus-galli [6] = assay: Herbicidal activity against Echinochloa crus-galli (barnyard grass) assessed as seedling death under green house at 0.25 kg/ha at 25 degC measured after 4 weeks; type: functional, organism-based
Amaranthus viridis [7] = assay: Herbicidal activity against Amaranthus viridis assessed as seedling death under green house at 0.25 kg/ha at 25 degC measured after 4 weeks; type: functional, organism-based
Amaranthus viridis [8] = assay: Herbicidal activity against Amaranthus viridis assessed as seedling death under green house at 1 kg/ha at 25 degC measured after 4 weeks; type: functional, organism-based
Digitaria ciliaris [9] = assay: Herbicidal activity against Digitaria ciliaris assessed as seedling death under green house at 0.5 kg/ha at 25 degC measured after 4 weeks; type: functional, organism-based
Echinochloa crus-galli [10] = assay: Herbicidal activity against Echinochloa crus-galli (barnyard grass) assessed as seedling death under green house at 0.5 kg/ha at 25 degC measured after 4 weeks; type: functional, organism-based
Gossypium hirsutum [11] = assay: Toxicity in Gossypium hirsutum cv. Hakushuu (cotton) assessed as seedling death under green house at 0.25 kg/ha at 25 degC measured after 4 weeks by crop selectivity assay; type: organism-based; conditions: in vivo, 672 h
Digitaria ciliaris [12] = assay: Herbicidal activity against Digitaria ciliaris assessed as seedling death under green house at 0.25 kg/ha at 25 degC measured after 4 weeks; type: functional, organism-based
Persicaria lapathifolia [13] = assay: Herbicidal activity against Persicaria lapathifolia assessed as seedling death under green house at 4 kg/ha at 25 degC measured after 4 weeks; type: functional, organism-based
Amaranthus viridis [14] = assay: Herbicidal activity against Amaranthus viridis assessed as seedling death under green house at 4 kg/ha at 25 degC measured after 4 weeks; type: functional, organism-based
Digitaria ciliaris [15] = assay: Herbicidal activity against Digitaria ciliaris assessed as seedling death under green house at 4 kg/ha at 25 degC measured after 4 weeks; type: functional, organism-based
Echinochloa crus-galli [16] = assay: Herbicidal activity against Echinochloa crus-galli (barnyard grass) assessed as seedling death under green house at 4 kg/ha at 25 degC measured after 4 weeks; type: functional, organism-based
Gossypium hirsutum [17] = assay: Toxicity in Gossypium hirsutum cv. Hakushuu (cotton) assessed as seedling death under green house at 0.5 kg/ha at 25 degC measured after 4 weeks by crop selectivity assay; type: organism-based; conditions: in vivo, 672 h
Glycine max = assay: Toxicity in Glycine max cv. Tamahomare (soybean) assessed as seedling death under green house at 0.5 kg/ha at 25 degC measured after 4 weeks by crop selectivity assay; type: organism-based; conditions: in vivo, 672 h

| SMILES | Activity (Digitaria ciliaris [1]) | Activity (Persicaria lapathifolia [2]) | Activity (Echinochloa crus-galli [4]) | Activity (Amaranthus viridis [8]) | Activity (Digitaria ciliaris [9]) | Activity (Echinochloa crus-galli [10]) | other results |
| --- | --- | --- | --- | --- | --- | --- | --- |
| Cc1c(C(F)(F)F)noc1OCC(=O)N(C)c1cccc([N+](=O)[O-])c1 | Active | inactive | – | – | – | – | Activity (Amaranthus viridis [3]): inactive |
| Cc1c(C(F)(F)F)noc1OCC(=O)N(C)c1c(F)cccc1F | – | inactive | Active | – | – | – | Activity (Persicaria lapathifolia [5]): inactive |
| Cc1c(C(F)(F)F)noc1OCC(=O)N(C)c1ccccc1Cl | Active | – | Active | Active | Active | Active | Activity (Echinochloa crus-galli [6]): Active; Activity (Amaranthus viridis [7]): Active; Activity (Amaranthus viridis [3]): Active; Activity (Persicaria lapathifolia [5]): Active; Activity (Gossypium hirsutum [11]): Non-toxic; Activity (Digitaria ciliaris [12]): Active |
| CCc1ccc(N(C)C(=O)COc2onc(C(F)(F)F)c2C)cc1 | Active | inactive | Active | – | Active | Active | Activity (Persicaria lapathifolia [5]): inactive |
| Cc1c(C(F)(F)F)noc1OCC(=O)N(C)c1cccc(Br)c1 | Active | – | Active | – | Active | Active | – |
| Cc1c(C(F)(F)F)noc1OCC(=O)N(C)c1ccc([N+](=O)[O-])cc1 | – | – | – | – | – | – | Activity (Persicaria lapathifolia [13]): inactive; Activity (Amaranthus viridis [14]): inactive |
| COc1cccc(N(C)C(=O)COc2onc(C(F)(F)F)c2C)c1 | Active | – | Active | Active | Active | Active | – |
| Cc1c(C(F)(F)F)noc1OCC(=O)N(C)C(C)(C)C | – | – | – | – | – | – | Activity (Persicaria lapathifolia [13]): inactive; Activity (Digitaria ciliaris [15]): inactive; Activity (Amaranthus viridis [14]): inactive; Activity (Echinochloa crus-galli [16]): inactive |
| CCc1cccc(N(C)C(=O)COc2onc(C(F)(F)F)c2C)c1 | Active | – | Active | Active | Active | Active | Activity (Amaranthus viridis [3]): Active |
| Cc1cccc(N(C)C(=O)COc2onc(C(F)(F)F)c2C)c1C | Active | inactive | Active | – | Active | Active | – |
| CN(C(=O)COc1cc(-c2ccccc2)no1)c1ccccc1 | – | – | – | – | – | – | Activity (Persicaria lapathifolia [13]): inactive; Activity (Digitaria ciliaris [15]): inactive; Activity (Amaranthus viridis [14]): inactive; Activity (Echinochloa crus-galli [16]): inactive |
| CCC(C)N(C)C(=O)COc1onc(C(F)(F)F)c1C (stereo unspecified) | Active | – | – | – | Active | Active | – |
| Cc1c(C(F)(F)F)noc1OCC(=O)N(C)c1cccc(Cl)c1 | Active | – | Active | – | Active | Active | – |
| Cc1ccc(C)c(N(C)C(=O)COc2onc(C(F)(F)F)c2C)c1 | – | inactive | Active | – | – | Active | Activity (Persicaria lapathifolia [5]): inactive |
| CCCc1ccc(N(C)C(=O)COc2onc(C(F)(F)F)c2C)cc1 | – | inactive | Active | – | – | Active | Activity (Persicaria lapathifolia [5]): inactive |
| Cc1c(C(F)(F)F)noc1OCC(=O)N(C)c1ccccc1I | Active | inactive | Active | Active | Active | Active | Activity (Amaranthus viridis [3]): Active |
| CN(C(=O)COc1cc(C(C)(C)C)no1)c1ccccc1 | – | – | – | – | – | – | Activity (Persicaria lapathifolia [13]): inactive; Activity (Digitaria ciliaris [15]): inactive; Activity (Amaranthus viridis [14]): inactive |
| Cc1c(C(F)(F)F)noc1OCC(=O)N(C)c1ccccc1C(C)C | Active | inactive | Active | inactive | – | – | Activity (Amaranthus viridis [3]): inactive; Activity (Persicaria lapathifolia [5]): inactive |
| COc1ccccc1N(C)C(=O)COc1onc(C(F)(F)F)c1C | Active | – | Active | – | Active | Active | – |
| Cc1c(C(F)(F)F)noc1OCC(=O)N(C)c1c(Cl)cccc1Cl | – | – | – | – | – | – | Activity (Persicaria lapathifolia [13]): inactive; Activity (Amaranthus viridis [14]): inactive |
| Cc1c(C(F)(F)F)noc1OCC(=O)N(c1ccccc1)C(C)C | Active | – | Active | – | Active | Active | – |

| SMILES | Activity (Digitaria ciliaris [1]) | Activity (Persicaria lapathifolia [2]) | Activity (Echinochloa crus-galli [4]) | Activity (Amaranthus viridis [8]) | Activity (Digitaria ciliaris [9]) | Activity (Echinochloa crus-galli [10]) | other results |
| --- | --- | --- | --- | --- | --- | --- | --- |
| CN(C(=O)COc1onc(-c2ccccc2)c1Br)c1ccccc1 | – | – | – | – | – | – | Activity (Persicaria lapathifolia [13]): inactive; Activity (Amaranthus viridis [14]): inactive |
| Cc1cccc(N(C)C(=O)COc2onc(C(F)(F)F)c2C)c1 | Active | – | Active | Active | Active | Active | Activity (Amaranthus viridis [3]): Active |
| Cc1ccc(N(C)C(=O)COc2onc(C(F)(F)F)c2C)cc1 | Active | – | Active | Active | Active | Active | – |
| Cc1c(Cl)cccc1N(C)C(=O)COc1onc(C(F)(F)F)c1C | Active | – | Active | – | Active | Active | – |
| CCCCCN(C(=O)COc1onc(C(F)(F)F)c1C)c1ccccc1 | – | – | – | – | – | – | Activity (Persicaria lapathifolia [13]): inactive; Activity (Digitaria ciliaris [15]): inactive; Activity (Amaranthus viridis [14]): inactive |
| Cc1c(C(F)(F)F)noc1OCC(=O)N(C)c1ccc(Cl)cc1 | Active | inactive | Active | inactive | – | – | Activity (Amaranthus viridis [3]): inactive; Activity (Persicaria lapathifolia [5]): inactive |
| Cc1cccc(C)c1N(C)C(=O)COc1onc(C(F)(F)F)c1C | – | – | – | – | – | – | Activity (Persicaria lapathifolia [13]): inactive; Activity (Digitaria ciliaris [15]): inactive; Activity (Amaranthus viridis [14]): inactive; Activity (Echinochloa crus-galli [16]): inactive |
| CCCN(C(=O)COc1onc(C(F)(F)F)c1C)c1ccccc1 | Active | – | Active | – | – | Active | – |
| COc1ccc(N(C)C(=O)COc2onc(C(F)(F)F)c2C)cc1 | Active | inactive | Active | Active | Active | Active | Activity (Amaranthus viridis [3]): Active |
| Cc1c(C(F)(F)F)noc1OCC(=O)N(C)CC(C)C | Active | – | Active | – | Active | – | – |
| Cc1c(C(F)(F)F)noc1OCC(=O)N(C)c1ccccc1F | Active | – | Active | Active | Active | Active | Activity (Amaranthus viridis [3]): Active |
| Cc1c(C(F)(F)F)noc1OCC(=O)N(C)c1ccc(Br)cc1 | Active | inactive | Active | inactive | Active | – | Activity (Amaranthus viridis [3]): inactive; Activity (Persicaria lapathifolia [5]): inactive |
| Cc1c(C(F)(F)F)noc1OCC(=O)N(C)c1ccccc1-c1ccccc1 | – | – | – | – | – | – | Activity (Persicaria lapathifolia [13]): inactive; Activity (Digitaria ciliaris [15]): inactive; Activity (Amaranthus viridis [14]): inactive; Activity (Echinochloa crus-galli [16]): inactive |
| Cc1ccccc1N(C)C(=O)COc1onc(C(F)(F)F)c1C | Active | – | Active | Active | Active | Active | Activity (Amaranthus viridis [3]): Active |
| CCc1c(C(F)(F)F)noc1OCC(=O)N(C)c1ccccc1 | Active | – | Active | Active | Active | Active | Activity (Gossypium hirsutum [17]): Non-toxic; Activity (Glycine max): Non-toxic |
| CCc1ccccc1N(C)C(=O)COc1onc(C(F)(F)F)c1C | Active | inactive | Active | – | Active | – | Activity (Persicaria lapathifolia [5]): inactive |
| Cc1c(C(F)(F)F)noc1OCC(=O)N(C)c1ccc(F)cc1 | Active | – | Active | – | Active | Active | – |
| CCN(C(=O)COc1onc(C(F)(F)F)c1C)c1ccccc1 | Active | – | Active | – | Active | Active | – |
| CCCCN(C)C(=O)COc1onc(C(F)(F)F)c1C | – | inactive | – | – | – | – | – |
| Cc1c(C(F)(F)F)noc1OCC(=O)Nc1ccccc1 | – | – | – | – | – | – | Activity (Persicaria lapathifolia [13]): inactive; Activity (Digitaria ciliaris [15]): inactive; Activity (Amaranthus viridis [14]): inactive; Activity (Echinochloa crus-galli [16]): inactive |
| CCc1noc(OCC(=O)N(C)c2ccccc2)c1-c1ccccc1 | – | – | – | – | – | – | Activity (Persicaria lapathifolia [13]): inactive |
